Like-named read-outs stand apart in the source and are kept apart here.
Tests used:
[1] = tested on: microbial contaminants on the seeds; experiment: Contamination of dissected embryos after disinfection of loblolly pine seed (Example 5); assay type: cell-based; conditions: treatment 1: 30% hydrogen peroxide 15 min, vacuum, day 24 after dissection
Description: (§1) Methods: The first treatment was identical to the first treatment (hydrogen peroxide) described in EXAMPLE 4, and the second treatment was identical to the fifth treatment ([…]) described in EXAMPLE 4. Seed coats were cracked and removed, and the de-coated seeds were placed in sterile glass Petri plates (one plate/treatment) containing wet filter paper until dissection. Dissection was performed in quadrant Petri plates. A maximum of four seed were dissected per quadrant. […] Organ lengths and normalcy were assessed after 24 days on the medium.

[2] = tested on: loblolly pine seed; experiment: Germination of dissected embryos on medium 185 (normalcy, organ lengths, epicotyl presence) after disinfection of loblolly pine seed (Example 5); conditions: treatment 1: 30% hydrogen peroxide 15 min, vacuum, day 24 after dissection
Description: as §1

[3] = tested on: microbial contaminants on the seeds; conditions: loblolly pine, 30% H2O2 15 minutes; for contamination of whole seed: TSYG broth at 30° C.
Description: Methods: The following disinfection treatment was used for loblolly pine seed: • (1) Seed was placed in a tea strainer (about 100 seed/strainer) and soaked in deionized water for one hour with agitation; • (2) The seed in the tea strainer was soaked in a 10% solution of Liquinox (VWR Scientific) for one hour with agitation; • (3) The seed in the tea strainer was soaked in 30% H2O2 on a rotary shaker in a fume hood for 15 minutes; • (4) The seed in the tea strainer was rinsed 8 times for 10 minutes each in sterile water in a laminar flow hood; • (5) The seed in the tea strainer was hydrated in sterile water for 24 hours in a laminar flow hood; and • (6) The seed in the tea strainer was rinsed three times with sterile water for 10 minutes each.
After disinfection and hydration, seed were removed from the tea strainers and placed on a sterile Petri plate. Seed were individually removed with surface-sterilized latex gloves, cracked using autoclaved Vice-Grips, and placed in sterile quadrant Petri plates (2 seeds/quadrant) containing a drop of sterile water to avoid dehydration before dissection. After dissection, 50 whole seed and 50 dissected embryos were incubated in TSYG broth (Trypticase Soy Broth 30 g/l, Yeast Extract 5 g/l, Glucose 10 g/l, and—for a solid Petri plate or agar slant—Agar 15 g/l) and examined on a daily basis for signs of contamination during an eight week incubation period at 30° C.

OO [hydrogen peroxide] was tested, and the “Contamination (%)” value [1] was 0%, the “Cotyledon Length (cm)” value [2] was 0.7 cm and the “Epicotyl Presence (%)” value [2] was 65.7%. For the same compound, the “Hypocotyl Length (cm)” value [2] was 1.2 cm, the “Normalcy (%)” value [2] was 85.7% and the “Radicle Length (cm)” value [2] was 3.4 cm. For the same compound, the “contamination of whole seed” value ([3]; after eight weeks of incubation) was 68%, the “contamination of whole seed” value ([3]; by the third day of incubation, 4 out of 50 whole seed) was 8% and the “contamination of dissected embryos” value ([3]; TSYG broth, eight week incubation at 30° C.) was “no contamination”.
